Drawing on patent publication US9771369B2, “Compounds and methods for kinase modulation, and indications therefor” (Plexxikon Inc., priority 2014, dated 2017), this text covers IC50 for 22 compounds.

Chain of c-kit mutant D816V (P10721 other isoform, or with tags, fused parts or gaps D816V/del 694-753): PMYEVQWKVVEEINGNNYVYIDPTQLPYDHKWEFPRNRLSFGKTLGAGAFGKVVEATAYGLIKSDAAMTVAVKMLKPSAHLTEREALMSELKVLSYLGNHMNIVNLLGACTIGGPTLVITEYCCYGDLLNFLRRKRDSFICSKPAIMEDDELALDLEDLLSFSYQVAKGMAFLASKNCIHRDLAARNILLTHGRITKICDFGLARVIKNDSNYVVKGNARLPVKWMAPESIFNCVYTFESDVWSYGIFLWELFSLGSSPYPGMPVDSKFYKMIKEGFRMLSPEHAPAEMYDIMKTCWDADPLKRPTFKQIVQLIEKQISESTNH

The target of the experiment is c-kit mutant D816V (Homo sapiens (Human), UniProt P10721, D816V/DEL694-753). As to the kind of experiment: c-Kit mutant D816V biochemical assay (AlphaScreen kinase activity). The procedure:
The c-kit mutant D816V (or kinase domain thereof) is an active kinase in AlphaScreen. IC50 values are determined with respect to inhibition of c-Kit mutant D816V kinase activity, where inhibition of phosphorylation of a peptide substrate is measured as a function of compound concentration. Compounds to be tested were dissolved in DMSO to a concentration of 30 mM. These were diluted […] of DMSO (4 mM) and 1 μl was added to an assay plate. These were then serially diluted 1:3 (50 μl to […] DMSO) for a total of 8 points. Plates were prepared such that each kinase reaction is […] in 1× kinase buffer (25 mM HEPES, pH 7.2, 8 mM MgCl2, 2 mM MnCl2, 50 mM NaCl, 0.01% Brij, 1 mM DTT, 0.01% BSA), 5% DMSO and 10 μM ATP. Substrate was 30 nM biotin-(E4Y)10 (EMD Millipore, Cat#12-440). C-kit mutant D816V kinase was at 0.75 ng per sample. After incubation of the kinase reaction for 30 minutes at room temperature, 5 μl of donor beads (Streptavidin coated beads (Perkin Elmer Life Science) final concentration 7.5 μg/ml) in stop buffer (25 mM Hepes pH 7.5, 100 mM EDTA, 0.01% BSA) was added, the sample was mixed and incubated for 30 minutes at room temperature before adding […] of acceptor beads (PY30 coated beads (Perkin Elmer Life Science) final concentration 7.5 μg/ml) in stop buffer. The samples were incubated for 60 minutes at room temperature and the signal per well was read on EnVision reader. Phosphorylated substrate results in binding of the PY30 antibody and association of the donor and acceptor beads such that signal correlates with kinase activity. The signal vs. compound concentration was used to determine the IC50.
Recombinant c-kit mutant D816V (residues 551-934, kinase insertion domain residues 694-753 deleted) with a 6×-histidine N-terminal tag (SEQ ID NO: 3) was expressed in E. coli Arctic Express (DE3) RIL (Stratagene). Cells were grown in Terrific Broth (TB) media to an OD600 of 0.6 at 37° C. at which temperature was reduced to 10° C., protein was induced with 1.0 mM IPTG for 18 hours and harvested by centrifugation at 8000×g for 30 minutes. Cells were re-suspended in 0.1M KPO4 pH 8.0, 250 mM NaCl, 10% Glycerol, 0.75% NP-40, 25 mM Imidazole, 5 mM BME with 0.2 mg/ml Lysosyme, 2.0 mM PMSF, 25 μg/ml DNAse I, incubated in ice for 30 minutes and lyzed with a cell disruptor (MicroFluidics). The lysate was clarified by centrifugation at 30,000×g for 2 hours. The protein was captured with Talon resin (Clontech). Contaminating proteins were washed off with 25 mM Tris-HCl pH 8.3, 250 mM NaCl, 15% Glycerol, 1% Triton X-100, and protein eluted using 100 mM EDTA. The protein was further purified using Gel Filtration column 26/600 Superdex 300 (GE) in 50 mM Tris-HCl , pH 8.0, 250 mM NaCl, 15% Glycerol, 5 mM BME. The protein was aliquoted and flash-frozen in liquid Nitrogen.
On to `Cc1nc(C2CCN(c3ncnc4[nH]c(-c5cnn(C(F)F)c5)cc34)CC2)[nH]c1-c1ccc(OC(F)F)cc1` [P-3115, 4-[4-[5-[4-(difluoromethoxy)phenyl]-4-methyl-1H-imidazol-2-yl]-1-piperidyl]-6-[1-(difluoromethyl)pyrazol-4-yl]-7H-pyrrolo[2,3-d]pyrimidine], for which the IC50 (commonly the concentration that inhibits the measured activity by half) was 0.0001 to 1 µM.

`Cc1nc(C2CCN(c3ncnc4[nH]c(-c5cnn(C(F)F)c5)cc34)CC2)[nH]c1-c1ccc(OC(F)(F)F)cc1` [P-3116, 6-[1-(difluoromethyl)pyrazol-4-yl]-4-[4-[4-methyl-5-[4-(trifluoromethoxy)phenyl]-1H-imidazol-2-yl]-1-piperidyl]-7H-pyrrolo[2,3-d]pyrimidine] displayed an IC50 of 0.0001 to 1 µM.

With `COc1cc(-c2cc3c(N4CCC(c5nc(C)c(-c6ccc(C)s6)[nH]5)CC4)ncnc3[nH]2)ccn1` [P-3117, 6-(2-methoxy-4-pyridyl)-4-[4-[4-methyl-5-(5-methyl-2-thienyl)-1H-imidazol-2-yl]-1-piperidyl]-7H-pyrrolo[2,3-d]pyrimidine], the IC50 fell in the range of 0.0001 to 1 µM.

In turn, `Cc1ccc(-c2[nH]c(C3CCN(c4ncnc5[nH]c(-c6ccc(F)cc6)cc45)CC3)nc2C)s1` [P-3118, 6-(4-fluorophenyl)-4-[4-[4-methyl-5-(5-methyl-2-thienyl)-1H-imidazol-2-yl]-1-piperidyl]-7H-pyrrolo[2,3-d]pyrimidine] came in with an IC50 of 0.0001 to 1 µM.

The compound `Cc1nc(C2CCN(c3ncnc4[nH]c(-c5ccc(F)cc5)cc34)CC2)[nH]c1-c1ccc(Cl)s1` [P-3119, 4-[4-[5-(5-chloro-2-thienyl)-4-methyl-1H-imidazol-2-yl]-1-piperidyl]-6-(4-fluorophenyl)-7H-pyrrolo[2,3-d]pyrimidine] yielded an IC50 of 0.0001 to 1 µM.

As to `Cc1cc2c(N3CCC(c4nc(C)c(-c5ccc6c(c5)OCO6)[nH]4)CC3)ncnc2[nH]1` [P-3120, 4-[4-[5-(1,3-benzodioxol-5-yl)-4-methyl-1H-imidazol-2-yl]-1-piperidyl]-6-methyl-7H-pyrrolo[2,3-d]pyrimidine], the 50% inhibitory concentration (IC50) is 1 to 10 µM.

The compound `Cc1cc2c(N3CCC(c4nc(C)c(-c5ccc6c(c5)OCCO6)[nH]4)CC3)ncnc2[nH]1` [P-3121, 4-[4-[5-(2,3-dihydro-1,4-benzodioxin-6-yl)-4-methyl-1H-imidazol-2-yl]-1-piperidyl]-6-methyl-7H-pyrrolo[2,3-d]pyrimidine] showed an IC50 of 0.0001 to 1 µM.

Take `Cc1nn(C)cc1-c1cc2c(N3CCC(c4nc(C)c(-c5ccc(OC(F)(F)F)cc5)[nH]4)CC3)ncnc2[nH]1` [P-3122, 6-(1,3-dimethylpyrazol-4-yl)-4-[4-[4-methyl-5-[4-(trifluoromethoxy)phenyl]-1H-imidazol-2-yl]-1-piperidyl]-7H-pyrrolo[2,3-d]pyrimidine]: the IC50 fell in the range of 0.0001 to 1 µM.

The compound `COc1cccc(-c2[nH]c(C3CCN(c4ncnc5[nH]c(-c6ccnc(OC)c6)cc45)CC3)nc2C(F)(F)F)c1` [P-3123, 4-[4-[5-(3-methoxyphenyl)-4-(trifluoromethyl)-1H-imidazol-2-yl]-1-piperidyl]-6-(2-methoxy-4-pyridyl)-7H-pyrrolo[2,3-d]pyrimidine] gave an IC50 of 0.0001 to 1 µM.

Compound `COc1cccc(-c2[nH]c(C3CCN(c4ncnc5[nH]c(-c6ccc(C#N)cc6)cc45)CC3)nc2C(F)(F)F)c1` [P-3124, 4-[4-[4-[5-(3-methoxyphenyl)-4-(trifluoromethyl)-1H-imidazol-2-yl]-1-piperidyl]-7H-pyrrolo[2,3-d]pyrimidin-6-yl]benzonitrile] gave an IC50 of 0.0001 to 1 µM.

For `CCOc1ccc(-c2[nH]c(C3CCN(c4ncnc5[nH]c(C)cc45)CC3)nc2C)cc1C` [P-3125, 4-[4-[5-(4-ethoxy-3-methyl-phenyl)-4-methyl-1H-imidazol-2-yl]-1-piperidyl]-6-methyl-7H-pyrrolo[2,3-d]pyrimidine], the IC50 was in the range of 1 to 10 µM.

For `CCOc1cc(-c2[nH]c(C3CCN(c4ncnc5[nH]c(C)cc45)CC3)nc2C)ccc1C` [P-3126, 4-[4-[5-(3-ethoxy-4-methyl-phenyl)-4-methyl-1H-imidazol-2-yl]-1-piperidyl]-6-methyl-7H-pyrrolo[2,3-d]pyrimidine], the 50% inhibitory concentration (IC50) is 0.0001 to 1 µM.

Regarding `Cc1cc2c(N3CCC(c4nc(C)c(-c5ccc6c(c5)OC(F)(F)O6)[nH]4)CC3)ncnc2[nH]1` [P-3127, 4-[4-[5-(2,2-difluoro-1,3-benzodioxol-5-yl)-4-methyl-1H-imidazol-2-yl]-1-piperidyl]-6-methyl-7H-pyrrolo[2,3-d]pyrimidine], the IC50 was in the range of 1 to 10 µM.

For the compound `COc1ccc(-c2[nH]c(C3CCN(c4ncnc5[nH]c(C)cc45)CC3)nc2C)cc1C` [P-3128, 4-[4-[5-(4-methoxy-3-methyl-phenyl)-4-methyl-1H-imidazol-2-yl]-1-piperidyl]-6-methyl-7H-pyrrolo[2,3-d]pyrimidine], the IC50 lay in the range of 0.0001 to 1 µM.

Regarding `COc1cc(-c2[nH]c(C3CCN(c4ncnc5[nH]c(C)cc45)CC3)nc2C)ccc1C` [P-3129, 4-[4-[5-(3-methoxy-4-methyl-phenyl)-4-methyl-1H-imidazol-2-yl]-1-piperidyl]-6-methyl-7H-pyrrolo[2,3-d]pyrimidine], the IC50 is 1 to 10 µM.

With `COc1ccc(-c2[nH]c(C3CCN(c4ncnc5[nH]c(C)cc45)CC3)nc2C)cc1` [P-3130, 4-[4-[5-(4-methoxyphenyl)-4-methyl-1H-imidazol-2-yl]-1-piperidyl]-6-methyl-7H-pyrrolo[2,3-d]pyrimidine], the IC50 lay within 1 to 10 µM.

`COc1cccc(-c2[nH]c(C3CCN(c4ncnc5[nH]c(C)cc45)CC3)nc2C)c1` [P-3131, 4-[4-[5-(3-methoxyphenyl)-4-methyl-1H-imidazol-2-yl]-1-piperidyl]-6-methyl-7H-pyrrolo[2,3-d]pyrimidine] registered an IC50 of 0.0001 to 1 µM.

`Cc1nc(C2CCN(c3ncnc4[nH]c(-c5ccc(C#N)cc5)cc34)CC2)[nH]c1-c1ccc2c(c1)OCCO2` [P-3132, 4-[4-[4-[5-(2,3-dihydro-1,4-benzodioxin-6-yl)-4-methyl-1H-imidazol-2-yl]-1-piperidyl]-7H-pyrrolo[2,3-d]pyrimidin-6-yl]benzonitrile] gave an IC50 of 0.0001 to 1 µM.

For the compound `Cc1nc(C2CCN(c3ncnc4[nH]c(-c5cnn(C(F)F)c5)cc34)CC2)[nH]c1-c1ccc2c(c1)OCCO2` [P-3133, 6-[1-(difluoromethyl)pyrazol-4-yl]-4-[4-[5-(2,3-dihydro-1,4-benzodioxin-6-yl)-4-methyl-1H-imidazol-2-yl]-1-piperidyl]-7H-pyrrolo[2,3-d]pyrimidine], the 50% inhibitory concentration (IC50) lay within 0.0001 to 1 µM.

With `COc1cc(-c2cc3c(N4CCC(c5nc(C(F)(F)F)c(-c6ccc(C)cc6)[nH]5)CC4)ncnc3[nH]2)ccn1` [P-3134, 6-(2-methoxy-4-pyridyl)-4-[4-[5-(p-tolyl)-4-(trifluoromethyl)-1H-imidazol-2-yl]-1-piperidyl]-7H-pyrrolo[2,3-d]pyrimidine], the IC50 lay within 0.0001 to 1 µM.

Compound `Cc1ccc(-c2[nH]c(C3CCN(c4ncnc5[nH]c(-c6ccc(F)cc6)cc45)CC3)nc2C(F)(F)F)cc1` [P-3135, 6-(4-fluorophenyl)-4-[4-[5-(p-tolyl)-4-(trifluoromethyl)-1H-imidazol-2-yl]-1-piperidyl]-7H-pyrrolo[2,3-d]pyrimidine] gave an IC50 of 0.0001 to 1 µM.

For `Cc1nc(C2CCN(c3ncnc4[nH]c(-c5ccc(F)cc5)cc34)CC2)[nH]c1-c1ccc(C(F)(F)F)cc1` [P-3136, 6-(4-fluorophenyl)-4-[4-[4-methyl-5-[4-(trifluoromethyl)phenyl]-1H-imidazol-2-yl]-1-piperidyl]-7H-pyrrolo[2,3-d]pyrimidine], the half-inhibitory concentration (IC50) was in the range of 0.0001 to 1 µM.
